According to ChEMBL document CHEMBL6177999, “Discovery of 3-(Fluoro-imidazolyl)pyridazine Derivatives as Potent STING Agonists with Antitumor Activity” (J Med Chem, 2025):
pEC50, pIC50: −log10 of the molar value.

Legend:
[1] = target: T1, Stimulator of interferon genes protein (Mus musculus, UniProt Q3TBT3); experiment: Displacement of 5-FAM-labeled diABZI tracer from N-terminal 6xHis-tagged wild-type mouse STING CTD extracted from Escherichia coli BL21(DE3) incubated for 30 mins by competitive binding based fluorescence polarization assay
T1 sequence (Q3TBT3 whole entry): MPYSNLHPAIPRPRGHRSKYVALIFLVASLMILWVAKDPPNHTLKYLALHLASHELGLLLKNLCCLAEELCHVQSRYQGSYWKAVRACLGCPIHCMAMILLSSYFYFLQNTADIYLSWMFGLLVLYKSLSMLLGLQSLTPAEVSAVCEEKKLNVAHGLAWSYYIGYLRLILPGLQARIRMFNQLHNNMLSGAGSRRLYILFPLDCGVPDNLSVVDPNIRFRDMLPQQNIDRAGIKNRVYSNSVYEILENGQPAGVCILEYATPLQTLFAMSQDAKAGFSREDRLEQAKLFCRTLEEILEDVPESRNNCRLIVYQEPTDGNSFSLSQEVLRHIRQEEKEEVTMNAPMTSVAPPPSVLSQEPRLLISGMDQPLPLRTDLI

[2] = target: T1, Stimulator of interferon genes protein; experiment: Agonist activity at STING in mouse RAW-Lucia ISG cells harbouring SEAP reporter gene assessed as activation of cGAS-STING signaling pathway incubated for 24 hrs by QUANTI-Blue reagent based analysis
[3] = target: T1, Stimulator of interferon genes protein; experiment: Agonist activity at STING in mouse RAW-Lucia ISG-KO-STING cells harbouring SEAP reporter gene assessed as activation of cGAS-STING signaling pathway incubated for 24 hrs by QUANTI-Blue reagent based analysis
[4] = Clearance in female C57BL/6 mouse at 10 mg/kg, iv measured up to 24 hrs by LC-MS/MS analysis; details: in vivo
B16-F10 = experiment: Antitumor activity against mouse B16-F10 cells allografted in female C57BL/6 mouse assessed as tumor growth inhibition at 30 mg/kg, iv qd relative to control; details: B16-F10, read-out: TGI
[5] = target: T2, Stimulator of interferon genes protein (Homo sapiens, UniProt Q86WV6); experiment: Displacement of 5-FAM-labeled diABZI tracer from N-terminal 6xHis-tagged human STING R232H mutant CTD extracted from Escherichia coli BL21(DE3) incubated for 30 mins by competitive binding based fluorescence polarization assay
[6] = target: T2, Stimulator of interferon genes protein; experiment: Displacement of 5-FAM-labeled diABZI tracer from N-terminal 6xHis-tagged wild-type human STING CTD extracted from Escherichia coli BL21(DE3) incubated for 30 mins by competitive binding based fluorescence polarization assay
[7] = target: Stimulator of interferon genes protein (Homo sapiens, UniProt Q86WV6, G230A/R293Q)
[8] = target: Stimulator of interferon genes protein (Homo sapiens, UniProt Q86WV6, R293Q)
Chain of Stimulator of interferon genes protein (Homo sapiens, UniProt Q86WV6, R293Q) (Q86WV6 whole entry R293Q): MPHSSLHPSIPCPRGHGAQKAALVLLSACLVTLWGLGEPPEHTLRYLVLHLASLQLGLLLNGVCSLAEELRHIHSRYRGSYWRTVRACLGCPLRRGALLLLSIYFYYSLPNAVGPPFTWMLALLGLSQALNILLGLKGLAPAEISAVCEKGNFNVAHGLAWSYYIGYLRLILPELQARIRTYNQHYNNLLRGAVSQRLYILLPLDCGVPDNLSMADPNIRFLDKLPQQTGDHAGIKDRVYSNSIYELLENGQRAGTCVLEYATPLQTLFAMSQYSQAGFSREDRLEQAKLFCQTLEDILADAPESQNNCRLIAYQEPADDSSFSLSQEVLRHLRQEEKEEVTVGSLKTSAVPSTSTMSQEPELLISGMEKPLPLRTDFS

T2 sequence (Q86WV6 whole entry): as the sequence (Q86WV6 whole entry R293Q) above, with Q293R counted along it
Chain of Stimulator of interferon genes protein (Homo sapiens, UniProt Q86WV6, G230A/R293Q) (Q86WV6 whole entry G230A/R293Q): as the sequence (Q86WV6 whole entry R293Q) above, with G230A counted along it

| pIC50 [1] | pEC50 [2] | pEC50 [3] | clearance at 24 h [4] [mL/min/kg] | pIC50 [5] | pIC50 [6] | pIC50 [7] | pIC50 [8] | Structure (SMILES) | inhibition in vivo at 30 mg/kg (B16-F10) [%] |
| --- | --- | --- | --- | --- | --- | --- | --- | --- | --- |
| 5.73 | < 4.00 | < 4.00 | 123 | – | – | – | – | O=C(Nc1cc(F)c(F)cc1C(=O)O)c1ccc(-n2ccnc2)nn1 | 52.4 |
| 5.60 | 4.33 | < 4.00 | – | 5.76 | 5.74 | 6.03 | 5.72 | O=C(Nc1cc(Cl)c(F)cc1C(=O)O)c1ccc(-n2cnc(F)c2)nn1 | – |
| 5.58 | 4.61 | < 4.00 | – | 5.87 | 5.83 | 6.01 | 5.84 | O=C(Nc1cc(Br)c(F)cc1C(=O)O)c1ccc(-n2cnc(F)c2)nn1 | – |
